Assay in all cases: NCI tumour cell line growth inhibition, 48 h
Test [1] has as its system DU-145.
The subject of test [2] is LOX IMVI.
Test [3] has as its system A498.
In test [4] the test system is KM12.
Test [5] deals with SF-295.
Test [6] relates to HCT-15.
Test [7] concerns SNB-19.
Test [8] has as its system K562.
Test [9] relates to MCF7.
Test [10] concerns SK-MEL-5.
For test [11], the system named is CCRF-CEM.
The subject of test [12] is SNB-75.
Test [13] concerns SK-OV-3.
Test [14] relates to HCT-116.
Test [15] relates to SN12C.
The subject of test [16] is 786-0.
Test [17] has as its system NCI-H522.
For test [18], the system named is MOLT-4.
Test [19] has as its system PC-3.
Test [20] relates to HL-60.

Experimental findings from ChEMBL document CHEMBL1201862, “PubChem BioAssay data set” (2004) are described below.

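Values below derive from 48-hour exposures of cells grown in 96-well plates, with endpoints linearly interpolated between the two concentrations bracketing the appropriate inhibition level. GI50 = concentration required for 50% inhibition of growth.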 Activity calls are given as the source filed them. No stated cut-off is given here; in the data, active = GI50 up to about 1.1 µM and inactive = higher.

On to `COc1cc(OC)c(/C=N/N=C(\N)NO)c(OC)c1`, for which the GI50 was 85.5 µM (inactive) in test [1]; > 100 µM (inactive) in test [2]; > 100 µM (inactive) in test [3]; 0.787 µM (active) in [4]; 33 µM (inactive) in [5]; 83.9 µM in test [6]. Further, the GI50 in [7] is > 100 µM (inactive); in [8], 41.6 µM (inactive); in [9] it was > 100 µM (inactive); in test [10] it was > 100 µM (inactive); in test [11], > 100 µM (inactive); in test [12], 0.0255 µM (active). The GI50 in test [13], in [14], in test [15], in test [16], in [17] and in test [18] was > 100 µM (inactive) each time. Besides, in [19], the GI50 was > 100 µM (inactive).
In the case of `Brc1ccc(/N=N/N2CCCCC2)cc1`, the GI50 in test [1] was > 100 µM (inactive); in [2], 35.7 µM (inactive); in test [3], 57.5 µM (inactive); in test [4], 27 µM (inactive); in [5], 35.6 µM (inactive); in [6], 27.5 µM. The GI50 in test [7] was > 100 µM (inactive); in [8], 27.4 µM (inactive); in test [9] it was 35.5 µM (inactive); in test [10], 34.5 µM (inactive); in test [11] it was 22.2 µM (inactive); in test [12] it was 41.9 µM (inactive). Besides, the GI50 in test [13] is > 100 µM (inactive); in test [14] it was 34.2 µM (inactive); in test [15], 57.9 µM (inactive); in test [16] it was 44.3 µM (inactive); in test [17] it was 24 µM (inactive); in [18], 19.9 µM (inactive). Moreover, the GI50 in [19] is 35.2 µM (inactive).
For `COc1cc2c(c3nc4ccccc4nc13)-c1ccc(SC)c(=O)cc1[C@@H](NC(C)=O)CC2`, the GI50 in test [1] is 0.129 µM (active); in test [2] it was 0.0542 µM (active); in [3], 0.82 µM (active); in test [4], 0.0193 µM (active); in test [5], 0.216 µM (active); in [6], 1.23 µM. The GI50 in [7] was 0.0475 µM (active); in [8], 0.0328 µM (active); in test [9], 0.0485 µM (active); in test [10], 0.0347 µM (active); in test [11], 0.0601 µM (active); in test [12], 0.0313 µM (active). The GI50 in [13] is 0.266 µM (active); in test [14] it was 0.0372 µM (active); in [15] it was 0.0968 µM (active); in [16], 0.115 µM (active); in test [17], 0.0327 µM (active); in test [18], 0.0438 µM (active). In test [19], the GI50 is 0.0479 µM (active).
Turning to `CC(C)C(O)(C(=O)OCN1C(=O)C2C3C=CC(C2C1=O)C1C2C(=O)N(COC(=O)C(O)(C(C)C)C(C)O)C(=O)C2C31)C(C)O` (stereo unspecified), the GI50 in [20] is > 100 µM (inactive); in test [1] it was > 100 µM (inactive); in test [3] it was 39.7 µM (inactive); in test [4] it was > 100 µM (inactive); in test [5] it was > 100 µM (inactive); in test [6], greater than 100 µM. Also, the GI50 in [7] was > 100 µM (inactive); in [8], > 100 µM (inactive); in test [9], > 100 µM (inactive); in test [10] it was > 100 µM (inactive); in test [11], > 100 µM (inactive); in test [12] it was 0.0275 µM (active). Besides, the GI50 in [13], in test [14], in test [15], in test [16], in [17] and in test [18] was > 100 µM (inactive) throughout. For the same molecule, the GI50 in [19] is > 100 µM (inactive).
